From patent publication US20200016134A1, “COMPOSITIONS AND METHODS FOR TREATING SUBSTANCE ABUSE DISORDERS” (EMBERA NEUROTHERAPEUTICS, INC., priority 2016, published 2020)

Key:
rats = details: Goeders et al., cited from earlier work
adult male Wistar rats [1] = assay: Intravenous cocaine self-administration under a multiple, alternating schedule of food reinforcement and cocaine self-administration; assay type: in vivo, rat; details: for cocaine self-administration and reinstatement of extinguished cocaine seeking: pretreatment with the single drug, summary of the studies
Protocol: Adult male Wistar rats were trained under a multiple, alternating schedule of cocaine and food self-administration. This schedule consisted of alternating periods of cocaine access and food reinforcement. In some instances, as described further below, three doses of cocaine (0.125, 0.25, or 0.50 mg/kg/infusion) were tested. Rats were also periodically trained with saline substitution (cocaine extinction) and food extinction during the same session.
More specifically, adult male Wistar rats were implanted with chronic jugular catheters. Following recovery from surgery, the rats were trained to respond under a multiple, alternating schedule of food reinforcement and cocaine self-administration. Food-maintained responding was used to control for the non-specific motor effects of the various treatments. During the food component of the schedule, the stimulus light located above the food response lever was illuminated to indicate the availability of food reinforcement. […] A 25-second timeout followed the delivery of each food pellet. During this timeout, the stimulus light was darkened and responses on the food lever were counted but had no scheduled consequences. Responding on the other (cocaine) lever during the food component also had no scheduled consequences. […] Following 15 minutes of access to food, all stimulus lights in the chamber were darkened for a 1-minute timeout. Following the timeout, the stimulus light above the cocaine response lever was illuminated to indicate the availability of cocaine (0.125, 0.25, or 0.5 mg/kg/infusion). […] A 20-second timeout period followed each infusion. […] After 15 minutes of access to cocaine and a 1-minute timeout, the rats were again allowed 15 minutes access to the food component of the schedule. Access to food and cocaine alternated in this manner every 15 minutes during the two hour behavioral sessions so that each rat was exposed to food and cocaine for four 15-minute periods each. Each behavioral session began with 15 minutes access to either food or cocaine, and this alternated daily. Stable baselines of responding were established when the total number of cocaine and food presentations, as well as the number of presentations during each of the four exposures each session, varied less than 10% for three consecutive sessions. At least three different doses of cocaine (e.g., 0.125, 0.25, and 0.5 mg/kg/infusion) were tested. Rats were first trained to self-administer 0.25 mg/kg/infusion, which was the standard dose of cocaine used. When responding stabilized, the dose was changed to 0.125 or 0.5 mg/kg/infusion as appropriate.
Once stable baselines of responding were obtained, dose-response curves for the various compounds were individually generated for each rat. Rats were treated with each dose at least twice with a minimum of two days of baseline cocaine self-administration interspersed between each test. Each group of rats was tested with only two of the test compounds to minimize potential carryover effects.

adult male Wistar rats [2] = assay: Cue-induced reinstatement of extinguished cocaine seeking (model of relapse); assay type: in vivo, rat; details: FIG. 11; chronic metyrapone 50 mg/kg ip, once per day for 14 days
Protocol: Training to self-administer cocaine: In one model, rats were exposed to alternating 15-minute periods of access to cocaine self-administration and food reinforcement. Food was used to control for potential nonspecific, ataxis effects of the drugs and combinations. […] In this model, rats are trained to self-administer cocaine and the ability of conditioned cues in the environment to reinstate extinguished responding is assessed and taken as a measure of relapse.
Cue-induced Reinstatement of Extinguished Cocaine Seeking: The experiments described herein were designed to investigate whether or not drug combinations identified as effective in reducing cocaine self-administration would also block the ability of conditioned cues to reinstate extinguished cocaine-seeking behavior. Adult male Wistar rats were implanted with chronic jugular catheters and trained to self-administer cocaine (0.25 mg/kg/infusion) by pressing one of the response levers in the experimental chamber (i.e., the “active” or “cocaine” lever) under a fixed-ratio four (FR4) schedule of reinforcement during daily 2-hour sessions conducted 5 days per week. At the start of each session, both levers were extended into the chamber and the stimulus light above the active lever was illuminated to indicate the availability of cocaine. […] A 20-second timeout period followed each infusion. […]

male Wistar rats = assay: Forced Swim Test (FST), animal model of depression
[3] = Phase I single- and multiple-rising dose study: plasma pharmacokinetics; details: human, in vivo
Protocol: METHODS: This was a single- and multiple-rising dose study. Healthy volunteers who smoke, aged 18-65, received a single AM dose on Day 1, BID dosing on Days 3-9 and a single AM dose on Day 10. Three sequential dose cohorts of 8 subjects (6 drug, 2 placebo) received the following doses of MET and OX, respectively: 270 and 12 mg; 540 and 24 mg; and 720 and 24 mg. Total daily doses were double these amounts on BID dosing days. Primary outcomes were safety and pharmacokinetics of MET, its active metabolite (metyrapol), and OX. Safety measures included vital signs, ECGs an standard safety labs. Cortisol and other HPA axis parameters were monitored closely throughout the study.

[4] = FIG. 3, low, ineffective doses alone: alprazolam 0.2-2 mg/kg ip, ketoconazole 5-75 mg/kg ip
[5] = FIG. 8, high dose alone: muscimol 1-4 mg/kg ip, CP-154,526 10-80 mg/kg ip
[6] = FIG. 8, low, ineffective doses alone: muscimol 0.5-2.0 mg/kg ip, CP-154,526 5-25 mg/kg ip
[7] = FIG. 9, high dose alone: muscimol 1-4 mg/kg ip, metyrapone 25-175 mg/kg ip
[8] = FIG. 7, high dose alone: metyrapone 25-175 mg/kg ip, alprazolam 1-5 mg/kg ip
[9] = FIG. 7, low, ineffective doses alone: metyrapone 25-50 mg/kg ip, alprazolam 0.5-2 mg/kg ip

SMILES | intravenous cocaine self-administration (rats; pretreatment) | cocaine self-administration (number of cocaine infusions) (adult male Wistar rats [1]; [4]) | cocaine self-administration and reinstatement of extinguished cocaine seeking (adult male Wistar rats [1]; rats) | cocaine self-administration (infusions, percentage of baseline) (adult male Wistar rats [1]; [5]) | cocaine self-administration (infusions, percentage of baseline) (adult male Wistar rats [1]; [6]) | cocaine self-administration (infusions, percentage of baseline) (adult male Wistar rats [1]; [7]) | cocaine self-administration (number of cocaine infusions) (adult male Wistar rats [1]; [8]) | cocaine self-administration (number of cocaine infusions) (adult male Wistar rats [1]; [9]) | further results
CC(=O)N1CCN(c2ccc(OCC3COC(Cn4ccnc4)(c4ccc(Cl)cc4Cl)O3)cc2)CC1 (stereo not drawn) [ketoconazole] | reduced cocaine self-administration | did not significantly affect cocaine self-administration | decrease cocaine self-administration and the reinstatement of extinguished cocaine seeking | – | – | – | – | – | cocaine- or food-maintained responding (adult male Wistar rats [1]; ketoconazole 12.5 mg/kg tested alone): no effect; cocaine self-administration (number of cocaine infusions) (adult male Wistar rats [1]; rat, in vivo): did not significantly affect cocaine self-administration; minimally effective dose (reduces cocaine self-administration by at least 50% without affecting food-maintained responding) (adult male Wistar rats [1]; rats): 25 mg/kg
CCCCN(CC)c1nc(C)nc2c1c(C)cn2-c1c(C)cc(C)cc1C [CP-154,526] | – | – | decrease cocaine self-administration and the reinstatement of extinguished cocaine seeking | reduced cocaine self-administration | did not significantly affect cocaine self-administration | – | – | – | cocaine self-administration (infusions, percentage of baseline) (adult male Wistar rats [1]; FIG. 6, high dose alone: CP-154,526 10-80 mg/kg ip, oxazepam 5-25 mg/kg ip): reduced cocaine self-administration; cocaine self-administration (infusions, percentage of baseline) (adult male Wistar rats [1]; FIG. 6, low, ineffective doses alone: CP-154,526 5-25 mg/kg ip, oxazepam 5-25 mg/kg ip): did not significantly affect cocaine self-administration
NCc1cc(=O)[nH]o1 [muscimol] | – | – | – | reduced cocaine self-administration | did not significantly affect cocaine self-administration | reduced cocaine self-administration | – | – | –
Cc1nnc2n1-c1ccc(Cl)cc1C(c1ccccc1)=NC2 [alprazolam] | – | did not significantly affect cocaine self-administration | decrease cocaine self-administration and the reinstatement of extinguished cocaine seeking | – | – | – | reduced cocaine self-administration | did not significantly affect cocaine self-administration | responding maintained by food and cocaine (rats; multiple schedule of iv cocaine and food reinforcement, initial testing, 1993): reduced responding maintained by both food and cocaine
CC(C)(C(=O)c1cccnc1)c1cccnc1 [metyrapone] | significant dose-related decreases | – | decrease cocaine self-administration and the reinstatement of extinguished cocaine seeking | – | – | reduced cocaine self-administration | reduced cocaine self-administration | did not significantly affect cocaine self-administration | cocaine seeking (responding on the active lever during reinstatement) (adult male Wistar rats [2]): reduced cocaine seeking to levels seen when only saline was delivered; plasma corticosterone (rats; pretreatment, 1996): significant dose-related decreases; cocaine self-administration (number of cocaine infusions) (adult male Wistar rats [1]; FIG. 1A, high dose alone: metyrapone 25-175 mg/kg ip, oxazepam 5-80 mg/kg ip): reduced cocaine self-administration; immobility time (male Wistar rats; chronic administration, single drug, Met50 group (metyrapone 50 mg/kg)): showed a lessening of immobility time; group means of immobility compared with vehicle (tolerance) (male Wistar rats; chronically treated groups that received only Ox or Met): equal to or exceeded the vehicle; t1/2, mean [3]: 1.887 h
